The text below walks through data of patent US9549942B2, “Composition for preventing or treating degenerative brain diseases including compound downregulating expression of BACE1 proteins” (RESEARCH & BUSINESS FOUNDATION SUNGKYUNKWAN UNIVERSITY, priority 2013, dated 2017).

The test system of one assay is Aβ. Put plainly: Generation of Aβ in brain cortex, immuno staining. It is filed as in vivo. The following applies: 3×Tg-AD mouse, 25 mg/kg orally every day for 4 weeks. As to the method: (§1) As an Alzheimer's dementia animal model, 3×Tg-AD mice were used. The 3×Tg-AD mouse is a mouse having overexpressed presenilin, amyloid precursor protein (APP), and Tau genes, which are frequently found in Alzheimer's dementia. The 3×Tg-AD mouse is an animal model that is widely used for research on Alzheimer's dementia (Oddo S. et al, 2003, Neuron, 39, 409-421). 25 mg/kg of chlorhexidine was orally administered every day for 4 weeks; and 0.1 mg/kg and 0.5 mg/kg of thioguanosine were orally administered every day for 8 weeks to 6-month old 3×Tg-AD mice. A Morris water maze test was used to evaluate the effects of chlorhexidine and thioguanosine administration on the mice.
From the 3×Tg-AD mouse to which chlorhexidine was administered in Example 4a brain was extracted. A […] frozen section was prepared from the extracted brain using a microtome. Then, generation of Aβ was measured using immuno staining or a human amyloid 13 (1-40) assay kit (IBL) and a human amyloid β (1-42) assay kit (IBL). FIGS. 20 and 21 show the results.

Assay [1] relates to BACE1 proteins. The assay can be described thus: BACE1 protein expression under oxidative stress (HNE) conditions of brain nerve cells (Western blot). It is filed as cell-based, human. Conditions: SH-SY5Y cells pretreated 24 hours at 1, 5 and 10 μM, then HNE. As to the method: In order to determine an influence of chlorhexidine and thioguanosine of the present disclosure on an amount of BACE1 expression under oxidative stress conditions of brain nerve cells, the following experiment was performed. Brain nerve cells, SH-SY5Y cells, were pretreated with chlorhexidine and thioguanosine at 1 μM, 5 μM, and 10 μM for 24 hours. Then, an oxidative stress substance HNE (4-hydroxynonenal) was applied to the SH-SY5Y cells, and a change in the amount of BACE1 proteins was determined by Western blot. A change in an amount of BACE1 mRNA was determined by real-time PCR.

Assay [2] concerns BACE1 proteins. Put plainly: BACE1 protein expression in brain of Alzheimer's dementia animal model (Western blot). In kind it is in vivo. Conditions: 3×Tg-AD mouse, 25 mg/kg orally every day for 4 weeks. As to the method:
as §1
From the 3×Tg-AD mouse to which chlorhexidine was administered in Example 4a brain was extracted. The extracted brain was lysed using a tissue lysis buffer and RNA was extracted using Trizol. The amount of BACE1 expression was determined by Western blot and real-time PCR. FIGS. 18 and 19 show the results.
In general terms: Immunoblotting shows a protein as a band on a membrane.

In another assay the test system is BACE1 mRNA. Put plainly: BACE1 mRNA under oxidative stress (HNE) conditions of brain nerve cells (real-time PCR). It is filed as cell-based, human. The following applies: SH-SY5Y cells pretreated 24 hours at 1, 5 and 10 μM, then HNE. As to the method:
In order to determine an influence of chlorhexidine and thioguanosine of the present disclosure on an amount of BACE1 expression under oxidative stress conditions of brain nerve cells, the following experiment was performed.
Brain nerve cells, SH-SY5Y cells, were pretreated with chlorhexidine and thioguanosine at 1 μM, 5 μM, and 10 μM for 24 hours. Then, an oxidative stress substance HNE (4-hydroxynonenal) was applied to the SH-SY5Y cells, and a change in the amount of BACE1 proteins was determined by Western blot. A change in an amount of BACE1 mRNA was determined by real-time PCR.
In this regard, in FIGS. 9 and 10, asterisks (**) indicate a significant (p≦0.01) increase of BACE1 mRNA expression relative to control. Similarly, number signs (##) indicate a significant (p≦0.01) decrease, and number signs (###) indicate a significant (p≦0.001) decrease in BACE1 mRNA expression relative to oxidative stress conditions.

Structures are written as SMILES.

For `[H]/N=C(\N/C(=N/[H])NCCCCCCNC(=N)NC(=N)Nc1ccc(Cl)cc1)Nc1ccc(Cl)cc1` [chlorhexidine, N′,N′″″-hexane-1,6-diylbis[N-(4-chlorophenyl)(imidodicarbonimidic diamide)]], the “generation of Aβ in cortex part of brain” value with Aβ was “lower generation of Aβ than that of the control group”. Moreover, the “increase in the amount of expression of BACE1 proteins due to oxidative stress” value with BACE1 proteins [1] was “decreased at 5 μM and 10 μM”. For the same compound, the “expression of BACE1 proteins in brain” value with BACE1 proteins [2] is on record as “lower expression of BACE1 proteins than that of the control group”. Further, the “increase in the amount of BACE1 mRNA due to oxidative stress” value in the assay with BACE1 mRNA was “decreased at 1 μM and at 5 μM”.
